# Measurements: patent publication US9133163B2, “Dihydropyrazole GPR40 modulators” (Bristol-Myers Squibb Company, priority 2012, dated 2015)
# Biological target: hGPR40 (Homo sapiens, UniProt O14842)
# Assay: FDSS-based intracellular calcium assay
# Format: cell-based
# Set-up: 3xFLAG; expressed in transfected cells
# Settings: intracellular Ca2+ response, cells expressing GPR40
# Experimental: FDSS-Based Intracellular Calcium Assay
# Compounds are dissolved in DMSO and diluted to desired concentrations with assay buffer and added to the cells as 3× solution (20 μL per well). Run fluorescence/luminescence reader FDSS (Hamamatsu) to read intracellular Ca^2+ response.
# Sequence of hGPR40 (O14842 whole entry): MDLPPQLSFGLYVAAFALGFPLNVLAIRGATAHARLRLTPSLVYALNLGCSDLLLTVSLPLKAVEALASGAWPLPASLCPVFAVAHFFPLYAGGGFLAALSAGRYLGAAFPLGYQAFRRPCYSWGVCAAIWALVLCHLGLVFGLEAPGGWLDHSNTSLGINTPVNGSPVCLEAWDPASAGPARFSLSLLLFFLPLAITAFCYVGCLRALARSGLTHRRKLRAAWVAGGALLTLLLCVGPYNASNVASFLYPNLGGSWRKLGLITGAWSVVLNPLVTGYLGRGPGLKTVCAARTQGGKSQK
row,Compound,EC50 [µM]
1,"Cc1cccc(F)c1N1CCC(Oc2ccc(N3N=C(C(F)(F)F)[C@@H](C)[C@@H]3CC(=O)O)cc2)CC1 [Example 42, 2-((4S,5S)-1-(4-((1-(2-Fluoro-6-methylphenyl)piperidin-4-yl)oxy)phenyl)-4-methyl-3-(trifluoromethyl)-4,5-dihydro-1H-pyrazol-5-yl)acetic acid]",0.796
2,"Cc1ccc(C)c(N2CCC(Oc3ccc(N4N=C(C(F)(F)F)[C@@H](C)[C@@H]4CC(=O)O)cc3)CC2)c1 [Example 43, 2-((4S,5S)-1-(4-((1-(2,5-Dimethylphenyl)piperidin-4-yl)oxy)phenyl)-4-methyl-3-(trifluoromethyl)-4,5-dihydro-1H-pyrazol-5-yl)acetic acid]",1.07
3,"Cc1cccc(C)c1N1CCC(Oc2ccc(N3N=C(C(F)(F)F)[C@@H](C)[C@@H]3CC(=O)O)cc2)CC1 [Example 44, 2-((4S,5S)-1-(4-((1-(2,6-Dimethylphenyl)piperidin-4-yl)oxy)phenyl)-4-methyl-3-(trifluoromethyl)-4,5-dihydro-1H-pyrazol-5-yl)acetic acid]",1.34
4,"COc1ccnc(N2CCC(Oc3ccc(N4N=C(C(F)(F)F)[C@@H](C)[C@@H]4CC(=O)O)cc3)CC2)c1 [Example 45, 2-((4S,5S)-1-(4-((1-(4-Methoxypyridin-2-yl)piperidin-4-yl)oxy)phenyl)-4-methyl-3-(trifluoromethyl)-4,5-dihydro-1H-pyrazol-5-yl)acetic acid]",1.52
5,"COc1ccccc1N1CCC(Oc2ccc(N3N=C(C(F)(F)F)[C@@H](C)[C@@H]3CC(=O)O)cc2)CC1 [Example 46, 2-((4S,5S)-1-(4-((1-(2-Methoxyphenyl)piperidin-4-yl)oxy)phenyl)-4-methyl-3-(trifluoromethyl)-4,5-dihydro-1H-pyrazol-5-yl)acetic acid]",1.7
6,"COc1cc(N2CCC(Oc3ccc(N4N=C(C(F)(F)F)[C@@H](C)[C@@H]4CC(=O)O)cc3)CC2)ccn1 [Example 47, 2-((4S,5S)-1-(4-((1-(2-Methoxypyridin-4-yl)piperidin-4-yl)oxy)phenyl)-4-methyl-3-(trifluoromethyl)-4,5-dihydro-1H-pyrazol-5-yl)acetic acid]",1.91
7,"COc1cc(C)c(N2CCC(Oc3ccc(N4N=C(C(F)(F)F)[C@@H](C)[C@@H]4CC(=O)O)cc3)CC2)c(C)c1 [Example 51, 2-((4S,5S)-1-(4-((1-(4-Methoxy-2,6-dimethylphenyl)piperidin-4-yl)oxy)phenyl)-4-methyl-3-(trifluoromethyl)-4,5-dihydro-1H-pyrazol-5-yl)acetic acid]",3.06
8,"COc1cccc(F)c1N1CCC(Oc2ccc(N3N=C(C(F)(F)F)[C@@H](C)[C@@H]3CC(=O)O)cc2)CC1 [Example 54, 2-((4S,5S)-1-(4-((1-(2-Fluoro-6-methoxyphenyl)piperidin-4-yl)oxy)phenyl)-4-methyl-3-(trifluoromethyl)-4,5-dihydro-1H-pyrazol-5-yl)acetic acid]",5.9
9,"C[C@@H]1C(C(F)(F)F)=NN(c2ccc(OC3CCN(c4ncccc4Cl)CC3)cc2)[C@H]1CC(=O)O [Example 58, 2-((4S,5S)-1-(4-((1-(3-Chloropyridin-2-yl)piperidin-4-yl)oxy)phenyl)-4-methyl-3-(trifluoromethyl)-4,5-dihydro-1H-pyrazol-5-yl)acetic acid]",0.293
10,"Cc1ccc(F)c(N2CCC(Oc3ccc(N4N=C(C(F)(F)F)[C@@H](C)[C@@H]4CC(=O)O)cc3)CC2)n1 [Example 61, 2-((4S,5S)-1-(4-((1-(3-Fluoro-6-methylpyridin-2-yl)piperidin-4-yl)oxy)phenyl)-4-methyl-3-(trifluoromethyl)-4,5-dihydro-1H-pyrazol-5-yl)acetic acid]",0.366

# Further lines, results first:
row,EC50 [µM],Compound
1,2.27,"C[C@@H]1C(C(F)(F)F)=NN(c2ccc(OC3CCN(c4cccc(F)c4)CC3)cc2)[C@H]1CC(=O)O [Example 48, 2-((4S,5S)-1-(4-((1-(3-Fluorophenyl)piperidin-4-yl)oxy)phenyl)-4-methyl-3-(trifluoromethyl)-4,5-dihydro-1H-pyrazol-5-yl)acetic acid]"
2,2.65,"C[C@@H]1C(C(F)(F)F)=NN(c2ccc(OC3CCN(c4ccc(F)cc4)CC3)cc2)[C@H]1CC(=O)O [Example 49, 2-((4S,5S)-1-(4-((1-(4-Fluorophenyl)piperidin-4-yl)oxy)phenyl)-4-methyl-3-(trifluoromethyl)-4,5-dihydro-1H-pyrazol-5-yl)acetic acid]"
3,2.84,"C[C@@H]1C(C(F)(F)F)=NN(c2ccc(OC3CCN(c4cccc(Cl)c4)CC3)cc2)[C@H]1CC(=O)O [Example 50, 2-((4S,5S)-1-(4-((1-(3-Chlorophenyl)piperidin-4-yl)oxy)phenyl)-4-methyl-3-(trifluoromethyl)-4,5-dihydro-1H-pyrazol-5-yl)acetic acid]"
4,3.62,"COc1ccc(N2CCC(Oc3ccc(N4N=C(C(F)(F)F)[C@@H](C)[C@@H]4CC(=O)O)cc3)CC2)cc1F [Example 52, 2-((4S,5S)-1-(4-((1-(3-Fluoro-4-methoxyphenyl)piperidin-4-yl)oxy)phenyl)-4-methyl-3-(trifluoromethyl)-4,5-dihydro-1H-pyrazol-5-yl)acetic acid]"
5,6.27,"C[C@@H]1C(C(F)(F)F)=NN(c2ccc(OC3CCN(c4ccc(Cl)cc4)CC3)cc2)[C@H]1CC(=O)O [Example 56, 2-((4S,5S)-1-(4-((1-(4-Chlorophenyl)piperidin-4-yl)oxy)phenyl)-4-methyl-3-(trifluoromethyl)-4,5-dihydro-1H-pyrazol-5-yl)acetic acid]"
6,0.361,"C[C@@H]1C(C(F)(F)F)=NN(c2ccc(OC3CCN(c4cc(F)ccc4Cl)CC3)cc2)[C@H]1CC(=O)O [Example 59, 2-((4S,5S)-1-(4-((1-(2-Chloro-5-fluorophenyl)piperidin-4-yl)oxy)phenyl)-4-methyl-3-(trifluoromethyl)-4,5-dihydro-1H-pyrazol-5-yl)acetic acid]"
7,0.364,"Cc1ccc(Cl)c(N2CCC(Oc3ccc(N4N=C(C(F)(F)F)[C@@H](C)[C@@H]4CC(=O)O)cc3)CC2)c1 [Example 60, 2-((4S,5S)-1-(4-((1-(2-Chloro-5-methylphenyl)piperidin-4-yl)oxy)phenyl)-4-methyl-3-(trifluoromethyl)-4,5-dihydro-1H-pyrazol-5-yl)acetic acid]"
8,0.382,"C[C@@H]1C(C(F)(F)F)=NN(c2ccc(OC3CCN(c4ccc(F)cc4Cl)CC3)cc2)[C@H]1CC(=O)O [Example 62, 2-((4S,5S)-1-(4-((1-(2-Chloro-4-fluorophenyl)piperidin-4-yl)oxy)phenyl)-4-methyl-3-(trifluoromethyl)-4,5-dihydro-1H-pyrazol-5-yl)acetic acid]"
9,0.398,"C[C@@H]1C(C(F)(F)F)=NN(c2ccc(OC3CCN(c4ccc(Cl)cc4F)CC3)cc2)[C@H]1CC(=O)O [Example 63, 2-((4S,5S)-1-(4-((1-(4-Chloro-2-fluorophenyl)piperidin-4-yl)oxy)phenyl)-4-methyl-3-(trifluoromethyl)-4,5-dihydro-1H-pyrazol-5-yl)acetic acid]"
10,0.512,"C[C@@H]1C(C(F)(F)F)=NN(c2ccc(OC3CCN(c4cc(Cl)ccc4F)CC3)cc2)[C@H]1CC(=O)O [Example 64, 2-((4S,5S)-1-(4-((1-(5-Chloro-2-fluorophenyl)piperidin-4-yl)oxy)phenyl)-4-methyl-3-(trifluoromethyl)-4,5-dihydro-1H-pyrazol-5-yl)acetic acid]"
